The text below walks through data of patent US20190083477A1, “Cyclooxygenase Inhibitor and Calcium Channel Antagonist Compositions and Methods for Use in Urological Procedures” (Omeros Corporation, priority 2005, published 2019).

Ends that are not written are not given here.

In experiment [1] the test system is rat bladder smooth muscle strips. Briefly: tissue or blood. As to conditions: read-out: BK-induced Contraction IC50.
For experiment [2], the system named is bradykinin-induced PGE2 in rat bladder tissue strips. Briefly: PGE2 release from urinary bladder strips, enzyme immunoassay (Example I). The note with it: 10 min, 10 minutes of bradykinin challenge, read-out: BK-induced PGE2 IC50. The format is cell-based.
A further experiment has as its system COX. The note with it: read-out: IC50 in a non-selective COX assay; cited from earlier work.
Experiment [3] has as its system rat bladder tissue strips. Put plainly: tissue or blood. As to conditions: read-out: inhibition of contractile response to bradykinin.
The test system of a further experiment is rat bladder. Briefly: Acetic-acid overactive bladder model, intravesical delivery, cystometry (Example V). The format is in vivo.
The test system of experiment [4] is bradykinin-stimulated PGE2 release from rat bladder tissue strips. Put plainly: tissue or blood. As to conditions: read-out: inhibition of bradykinin-evoked PGE2 release.
Experiment [5] deals with rat bladder smooth muscle strips.
The subject of the next experiment is L-type channel. The note with it: cited from earlier work.
The subject of a further experiment is rat urinary bladder. Put plainly: In vivo rat cystometry model, 0.2% acetic acid infusion (Example I). As to conditions: 10 mg/kg intravenous. The procedure: The rats were anesthetized with urethane at 1.2 g/kg i.p. in 5 ml/kg. A polyethylene catheter (PE50) was implanted into the bladder for saline or acetic acid infusion through a 3-way stopcock. A pressure transducer was connected for measurements of intravesical pressure. Warm (37° C.) saline was infused into the bladder at a constant rate of […] (1 ml/hour) until cystometry became stable (no less than 60 minutes). Thereafter, 0.2% acetic acid was infused into the urinary bladder. Aspirin (10 mg/kg i.v.) and vehicle were administered intravenously via a PE-10 catheter in the femoral vein at 5 minutes after infusion of acetic acid was started and at the end of first micturition cycle. Dunnett's test was applied for comparison between the time before and after test substance or vehicle treatment. To ascertain differences between the test substance and the vehicle control group, an unpaired Student's t test was used. Differences are considered significant at […].

The mark [6] stands for this setting: in irrigation buffer, 0.2% acetic acid, female rats.

L-type channel, sequence (Q13936 whole entry, the tested form may be a part): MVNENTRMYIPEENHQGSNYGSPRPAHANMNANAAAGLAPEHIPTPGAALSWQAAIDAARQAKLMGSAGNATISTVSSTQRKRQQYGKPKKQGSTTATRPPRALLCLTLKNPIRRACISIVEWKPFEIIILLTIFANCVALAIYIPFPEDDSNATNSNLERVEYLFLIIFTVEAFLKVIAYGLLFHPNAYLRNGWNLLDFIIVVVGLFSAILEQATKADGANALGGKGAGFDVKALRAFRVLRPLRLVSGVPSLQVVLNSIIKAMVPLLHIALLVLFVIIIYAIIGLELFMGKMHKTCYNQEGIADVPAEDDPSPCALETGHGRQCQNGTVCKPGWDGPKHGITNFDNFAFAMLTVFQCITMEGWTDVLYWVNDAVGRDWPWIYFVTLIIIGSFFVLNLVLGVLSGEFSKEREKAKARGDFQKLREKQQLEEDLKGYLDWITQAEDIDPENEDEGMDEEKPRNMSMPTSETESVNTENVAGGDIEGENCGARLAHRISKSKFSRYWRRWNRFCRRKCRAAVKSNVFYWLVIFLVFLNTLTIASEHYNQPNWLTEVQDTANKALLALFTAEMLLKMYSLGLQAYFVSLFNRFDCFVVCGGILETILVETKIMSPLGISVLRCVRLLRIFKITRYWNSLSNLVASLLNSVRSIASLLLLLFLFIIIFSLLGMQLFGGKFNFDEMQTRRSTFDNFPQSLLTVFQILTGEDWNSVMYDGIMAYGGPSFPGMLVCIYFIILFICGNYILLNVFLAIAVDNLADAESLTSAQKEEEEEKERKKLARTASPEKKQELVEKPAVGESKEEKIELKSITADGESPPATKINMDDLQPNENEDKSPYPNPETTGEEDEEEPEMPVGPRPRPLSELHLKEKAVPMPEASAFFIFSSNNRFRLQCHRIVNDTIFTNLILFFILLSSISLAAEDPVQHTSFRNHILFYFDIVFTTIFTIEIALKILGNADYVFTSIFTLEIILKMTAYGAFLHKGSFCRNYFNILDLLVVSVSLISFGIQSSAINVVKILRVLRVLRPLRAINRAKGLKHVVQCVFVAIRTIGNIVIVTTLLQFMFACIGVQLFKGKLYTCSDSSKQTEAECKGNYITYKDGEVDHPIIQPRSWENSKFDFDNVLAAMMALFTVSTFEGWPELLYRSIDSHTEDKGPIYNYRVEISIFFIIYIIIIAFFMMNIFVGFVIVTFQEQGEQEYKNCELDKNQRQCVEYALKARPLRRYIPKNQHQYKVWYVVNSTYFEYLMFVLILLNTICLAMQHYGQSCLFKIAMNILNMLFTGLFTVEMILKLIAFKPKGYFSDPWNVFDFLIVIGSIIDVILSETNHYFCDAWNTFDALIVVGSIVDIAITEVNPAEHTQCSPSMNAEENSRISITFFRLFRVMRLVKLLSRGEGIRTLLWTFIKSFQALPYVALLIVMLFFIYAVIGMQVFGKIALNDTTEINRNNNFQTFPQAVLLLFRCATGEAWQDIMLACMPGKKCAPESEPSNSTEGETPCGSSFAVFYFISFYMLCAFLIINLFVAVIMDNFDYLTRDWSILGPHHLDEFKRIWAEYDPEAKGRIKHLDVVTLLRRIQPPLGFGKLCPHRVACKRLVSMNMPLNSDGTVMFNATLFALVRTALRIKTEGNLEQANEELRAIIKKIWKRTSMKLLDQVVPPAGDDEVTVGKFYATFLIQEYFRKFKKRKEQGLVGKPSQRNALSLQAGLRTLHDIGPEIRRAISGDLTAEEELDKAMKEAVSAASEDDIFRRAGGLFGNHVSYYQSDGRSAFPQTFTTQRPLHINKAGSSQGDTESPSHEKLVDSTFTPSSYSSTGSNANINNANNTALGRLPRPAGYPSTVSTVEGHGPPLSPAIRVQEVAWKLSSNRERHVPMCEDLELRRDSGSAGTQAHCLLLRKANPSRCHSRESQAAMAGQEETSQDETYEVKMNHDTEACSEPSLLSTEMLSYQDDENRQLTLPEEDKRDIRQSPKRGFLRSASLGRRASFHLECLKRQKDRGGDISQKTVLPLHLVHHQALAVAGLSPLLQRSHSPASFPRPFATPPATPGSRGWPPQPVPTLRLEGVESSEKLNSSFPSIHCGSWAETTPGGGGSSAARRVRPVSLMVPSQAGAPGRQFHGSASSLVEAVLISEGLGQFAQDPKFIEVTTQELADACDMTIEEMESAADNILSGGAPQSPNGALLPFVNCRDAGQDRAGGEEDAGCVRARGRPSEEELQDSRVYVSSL

For `CS(=O)(=O)c1ccc(-n2nc(C(F)(F)F)cc2-c2ccc(F)cc2)cc1` [SC-58125, 1-[(4-methysufonyl)phenyl]-3-tri-fluoromethyl-5-(4-fluorophenyl)pyrazole], the IC50 in experiment [1] and in [2] was > 25 µM each time.
With `CC(C(=O)O)c1ccc(-c2ccccc2)c(F)c1` (stereo not shown) [Flurbiprofen], the concentration for half-maximal inhibition (IC50) in experiment [1] came out at 24.8 µM; in experiment [2], 1.65 µM.
With `CC(C(=O)O)c1cccc(C(=O)c2ccccc2)c1` (stereo not drawn) [Ketoprofen, 3-benzoyl-α-methylbenzeneacetic acid], the 50% inhibitory concentration (IC50) in the experiment on COX is 0.004 to 0.008 µM. Moreover, the inhibition at 10 µM in experiment [3] worked out at 67%; in experiment [4] it was 81%. In the experiment on rat bladder (setting [6]), the “concentration giving complete inhibition of the shortening of the ICI” value is listed as “approximately 3 μM”.
With RPPGFSPFR [bradykinin], the EC50 in experiment [5] (read-out: EC50, cumulative concentration-response curve (contraction), agonist on bladder strips of normal animals) amounted to 0.0085 µM.
As to `COC(=O)C1=C(C)NC(C)=C(C(=O)OC)C1c1ccccc1[N+](=O)[O-]` [Nifedipine, 1,4-dihydro-2,6-dimethyl-4-(2-nitrophenyl)-3,5-pyridinedicarboxylic acid dimethyl ester], in [5] (single agent, 10 min incubation), the “type of antagonism upon bradykinin-induced contractile responses” value is reported as “noncompetitive”. For the same compound, the onset of action result in the experiment with L-type channel is “less than 10 minutes”. The “concentration of maximal effects on the shortening of the ICI” value with rat bladder (setting [6]) is 1 µM. In addition, the “ICI plateau at higher concentrations” value with rat bladder (nifedipine above 1 μM in irrigation buffer) is recorded as “approximately 75 % of baseline”.
In the case of `CS(=O)(=O)c1ccc(-c2cc(Br)sc2-c2ccc(F)cc2)cc1` [DUP-697, 5-bromo-2-(4-fluorophenyl)-3-(4-methylsulfonyl) thiophene], the IC50 in [1] and in [2] was > 25 µM throughout.
On to `CC(=O)Oc1ccccc1C(=O)O` [aspirin], for which, in the experiment on rat urinary bladder, the Threshold pressure entry was “not affected”, the bladder capacity result is “parallel changes”, the “inhibition of the acetic acid induced reduction in the intercontraction interval (ICI)” value is listed as “gradual time-dependent inhibition” and the micturition pressure entry is reported as “not affected”.

By IC50 is commonly meant the concentration that gives 50% inhibition. In general, inhibition refers to the relative decrease from the control value, in per cent.
